# Test results taken from PMC4939023, “Efficacy of delayed treatment of China-made Peramivir with repeated intravenous injections in a mouse influenza model: from clinical experience to basal experiment” (BMC Infectious Diseases, 2016).
# Several values for one entry are separate records, joined by “and”; a condition that tells them apart may be missing. Equal entries are not always repeated. Entries after “also recorded” stand apart in the source; their conditions may differ. Where two headings read alike, the source gives them in different places.
# Legend:
# [1] = tested on: Influenza A H1N1pdm2009 (A/GZ/GIRD07/09, H1N1); set-up: species or system BALB/C mice; conditions: mouse, in vivo
# [2] = tested on: Influenza A H1N1pdm2009 (A/GZ/GIRD07/09, H1N1); set-up: species or system BALB/C mice; conditions: mouse, in vivo; remark: listed apart in the source
# H7N9 = tested on: H7N9; set-up: species or system human patients; conditions: human, in vivo
# influenza A/H1N1 = conditions: cited from earlier work; for weight loss and mortality: single intramuscular injection 10 mg/kg, mice infected with influenza A/H1N1
# [3] = tested on: Influenza A H1N1pdm2009 (A/GZ/GIRD07/09, H1N1); set-up: species or system BALB/C mice; conditions: mouse, in vivo; remark: listed apart in the source
# [4] = tested on: Influenza B (B/Guangzhou/GIRD08/09); set-up: species or system BALB/C mice; conditions: mouse, in vivo
# [5] = mouse, in vivo
# influenza [6] = conditions: given as late as 60 h after infection; cited from earlier work
# [7] = tested on: influenza A (H1N1) 2009 virus; conditions: cited from earlier work
# [8] = cited from earlier work
# influenza virus = conditions: repeated intravenous injections for 5 days, patients at high risk of complications; cited from earlier work
# influenza [9] = conditions: cited from earlier work
# [10] = oral administration; no reference given; cited from earlier work
smiles,measurement,setting,value
CCOC(=O)C1=C[C@@H](OC(CC)CC)[C@H](NC(C)=O)[C@@H](N)C1 [Oseltamivir],efficacy of delayed treatment (survival),[1],no efficacy
same,lung virus titer vs virus group,[2],reduced
same,Clinical outcome,H7N9,Survival; also recorded: Death
same,weight loss and mortality,influenza A/H1N1,no efficacy
CCC(CC)[C@H](NC(C)=O)[C@@H]1[C@H](O)[C@@H](C(=O)O)C[C@H]1N=C(N)N [Peramivir],efficacy of delayed treatment (survival rate) vs virus group,[1],efficacy was observed
same,efficacy of delayed treatment (survival),[1],no efficacy
same,mean number of days to death,[1],> 15 days
same,survival rate,[1],100% and 80% and 70%
same,survival rate vs virus group,[1],enhanced
same,difference in weight loss suppression compared with the virus group,"[1]; iv, 60 mg/kg",about 9%
same,weight loss suppression compared with the virus group,"[1]; iv, 60 mg/kg",significant weight loss suppression
same,lung virus titer vs virus group,[2],reduced lung virus titers
same,lung index vs virus group,[3],improvement
same,lung index vs virus group,[4],improved
same,Clinical outcome,H7N9,Survival; also recorded: Death
same,treatment efficacy in H7N9 patients,H7N9,a degree of treatment efficacy; also recorded: some treatment efficacy
same,concentration in the blood of virus-infected mice compared with normal mice,[5],no significant differences
same,prevention of death,influenza A/H1N1; single intramuscular dose 10 mg/kg administered at 24 or 48 h p.i.,prevented death
same,weight loss and mortality,influenza A/H1N1,significantly reduces weight loss and mortality
same,prevention of death,influenza [6],able to prevent death
same,survival rates and viral titers in the lungs,"[7]; 40 mg/kg·d i.v. QD x 20 days starting at 24, 48 or 72 h p.i.",increased survival rates and reduced viral titers in the lungs
same,drug-related toxicity,[7]; repeated intravenous injections 40 mg/kg·d for 20 days,no obvious signs of drug-related toxicity
same,toxicity or side effects,[8]; 1000 mg/kg·d administered for 5 days,no signs of toxicity or side effects
same,toxicity or side effects,[8]; doses as high as 3000 mg/kg·d administered as a single dose,no signs of toxicity or side effects
same,clinical effect,influenza virus,beneficial effects
same,safety,influenza virus,no major safety issues
same,in vitro activity relative to Oseltamivir carboxylate and Zanamivir,influenza [9],"comparable to, or better than"
same,oral bioavailability,[10],≤ 3%
CC(=O)N[C@H]1[C@H]([C@H](O)[C@H](O)CO)OC(C(=O)O)=C[C@@H]1N=C(N)N [Zanamivir],Clinical outcome,H7N9,Death; also recorded: Survival
